Measured values from ChEMBL document CHEMBL1201862, “PubChem BioAssay data set” (2004).
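Cultured in 96-well plates, cells were exposed to test compound for 48 hours across five concentrations. GI50 is the concentration that inhibits growth by half.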 The source made the active and inactive calls. No stated cut-off is given here; in the data, active = GI50 up to about 1.1 µM and inactive = higher.

Experiments:
Test in all cases: NCI-60 cell line screen, 48 h
NCI-H460 = tested on: NCI-H460
SN12C = tested on: SN12C
SR = tested on: SR
SK-MEL-5 = tested on: SK-MEL-5
HOP-62 = tested on: HOP-62
IGROV-1 = tested on: IGROV-1
OVCAR-8 = tested on: OVCAR-8
A549 = tested on: A549
ACHN = tested on: ACHN
U-251 = tested on: U-251
SF-539 = tested on: SF-539
MOLT-4 = tested on: MOLT-4
RXF 393 = tested on: RXF 393
HT-29 = tested on: HT-29
CAKI-1 = tested on: CAKI-1
DMS-114 = tested on: DMS-114
HOP-92 = tested on: HOP-92
SW-620 = tested on: SW-620
RPMI-8226 = tested on: RPMI-8226
Hs-578T = tested on: Hs-578T

Compound	GI50 (NCI-H460)	GI50 (SN12C)	GI50 (SR)	GI50 (SK-MEL-5)	GI50 (HOP-62)	GI50 (IGROV-1)	GI50 (OVCAR-8)	GI50 (A549)	GI50 (ACHN)	GI50 (U-251)	GI50 (SF-539)	GI50 (MOLT-4)	GI50 (RXF 393)	GI50 (HT-29)	GI50 (CAKI-1)	GI50 (DMS-114)	GI50 (HOP-92)	GI50 (SW-620)	GI50 (RPMI-8226)	GI50 (Hs-578T)
CC[N+](C)(C)c1ccc(C(=C2C=CC(=[N+](C)C)C=C2)c2ccc(N(C)C)cc2)cc1	5.74 µM (inactive)	4.39 µM (inactive)	10.6 µM (inactive)	13.4 µM (inactive)	8.34 µM (inactive)	12 µM (inactive)	12.8 µM (inactive)	4.45 µM (inactive)	10.8 µM (inactive)	3.94 µM (inactive)	12.8 µM (inactive)	12.4 µM (inactive)	37.3 µM (inactive)	4.93 µM (inactive)	23.7 µM (inactive)	11 µM (inactive)	19.5 µM (inactive)	4.41 µM (inactive)	2.19 µM (inactive)	–
CC(=O)SCCC1c2[nH]c3ccccc3c2CCN1O (centres undefined)	82.8 µM (inactive)	> 100 µM (inactive)	–	83 µM (inactive)	> 100 µM (inactive)	> 100 µM (inactive)	> 100 µM (inactive)	> 100 µM (inactive)	> 100 µM (inactive)	> 100 µM (inactive)	> 100 µM (inactive)	40.6 µM (inactive)	78 µM (inactive)	> 100 µM (inactive)	59.7 µM (inactive)	74.5 µM (inactive)	26.7 µM (inactive)	28.1 µM (inactive)	35.2 µM (inactive)	–
O=[PH](O)c1cccnc1	> 100 µM (inactive)	> 100 µM (inactive)	> 100 µM (inactive)	> 100 µM (inactive)	> 100 µM (inactive)	> 100 µM (inactive)	> 100 µM (inactive)	> 100 µM (inactive)	> 100 µM (inactive)	> 100 µM (inactive)	> 100 µM (inactive)	> 100 µM (inactive)	> 100 µM (inactive)	> 100 µM (inactive)	> 100 µM (inactive)	> 100 µM (inactive)	> 100 µM (inactive)	> 100 µM (inactive)	> 100 µM (inactive)	–
CCOCC(=O)N[C@H]1CCc2cc(OC)c(OC)c(OC)c2-c2ccc(SC)c(=O)cc21	< 0.01 µM (active)	< 0.01 µM (active)	< 0.01 µM (active)	< 0.01 µM (active)	< 0.01 µM (active)	< 0.01 µM (active)	< 0.01 µM (active)	< 0.01 µM (active)	< 0.0117 µM (active)	< 0.01 µM (active)	< 0.01 µM (active)	< 0.01 µM (active)	< 0.01 µM (active)	< 0.01 µM (active)	< 0.01 µM (active)	< 0.01 µM (active)	< 0.01 µM (active)	< 0.01 µM (active)	< 0.01 µM (active)	< 0.01 µM (active)
COC(=O)C12OCC34C(CC5C(C)C6=CC(=O)OC6=CC5(C)C3C(O)C1O)OC(=O)C(OC(C)=O)C24 (centres undefined)	21.3 µM (inactive)	17.1 µM (inactive)	18.3 µM (inactive)	15.3 µM (inactive)	25.8 µM (inactive)	27.8 µM (inactive)	16.3 µM (inactive)	19.8 µM (inactive)	15.7 µM (inactive)	23.5 µM (inactive)	15.2 µM (inactive)	14.8 µM (inactive)	13.7 µM (inactive)	16.3 µM (inactive)	9.91 µM (inactive)	12.3 µM (inactive)	16.9 µM (inactive)	9.4 µM (inactive)	12.1 µM (inactive)	–
O=S1(=O)CCCS(=O)(=O)C(c2ccccc2)=C1c1ccccc1	47.3 µM (inactive)	29.4 µM (inactive)	31.6 µM (inactive)	52.8 µM (inactive)	30.3 µM (inactive)	70.5 µM (inactive)	91.6 µM (inactive)	42.3 µM (inactive)	54 µM (inactive)	92.7 µM (inactive)	> 100 µM (inactive)	36.2 µM (inactive)	–	64 µM (inactive)	76.7 µM (inactive)	42.7 µM (inactive)	28.2 µM (inactive)	27.5 µM (inactive)	41 µM (inactive)	–
CC(=O)/C(=C\c1ccccc1O)C(=O)Nc1ccccc1C	23.7 µM (inactive)	> 10 µM (inactive)	13.1 µM (inactive)	13.5 µM (inactive)	20.9 µM (inactive)	25.9 µM (inactive)	31.7 µM (inactive)	20.5 µM (inactive)	17.5 µM (inactive)	8.85 µM (inactive)	18.5 µM (inactive)	9.84 µM (inactive)	19.1 µM (inactive)	16.9 µM (inactive)	16 µM (inactive)	24.3 µM (inactive)	15.9 µM (inactive)	20.7 µM (inactive)	15 µM (inactive)	–
COc1cc(C(C)O)c[n+](CCc2c[nH]c3ccccc23)c1 (centres undefined)	> 100 µM (inactive)	> 100 µM (inactive)	> 100 µM (inactive)	> 100 µM (inactive)	> 100 µM (inactive)	> 100 µM (inactive)	> 100 µM (inactive)	> 100 µM (inactive)	> 100 µM (inactive)	> 100 µM (inactive)	> 100 µM (inactive)	> 100 µM (inactive)	> 100 µM (inactive)	58.6 µM (inactive)	> 100 µM (inactive)	> 100 µM (inactive)	–	> 100 µM (inactive)	> 100 µM (inactive)	–
COc1ccc(/C=C2\C(=O)N(C(=O)c3ccc(NC(C)=O)cc3)N=C2C)cc1	> 100 µM (inactive)	> 100 µM (inactive)	> 100 µM (inactive)	> 100 µM (inactive)	> 100 µM (inactive)	–	> 100 µM (inactive)	> 100 µM (inactive)	> 100 µM (inactive)	–	> 100 µM (inactive)	> 100 µM (inactive)	–	> 100 µM (inactive)	> 100 µM (inactive)	> 100 µM (inactive)	–	> 100 µM (inactive)	> 100 µM (inactive)	–
CN1CC[C@]2(C)c3c(O)cccc3CC3CCCC1C32C (some centres undefined)	> 100 µM (inactive)	> 100 µM (inactive)	> 100 µM (inactive)	> 100 µM (inactive)	> 100 µM (inactive)	> 100 µM (inactive)	> 100 µM (inactive)	> 100 µM (inactive)	> 100 µM (inactive)	> 100 µM (inactive)	> 100 µM (inactive)	> 100 µM (inactive)	> 100 µM (inactive)	> 100 µM (inactive)	> 100 µM (inactive)	> 100 µM (inactive)	89.7 µM (inactive)	–	> 100 µM (inactive)	–
CC1=NN(C(=O)Cc2ccccc2)C(=O)/C1=C\c1cccc(O)c1	> 100 µM (inactive)	> 100 µM (inactive)	> 100 µM (inactive)	> 100 µM (inactive)	> 100 µM (inactive)	–	> 100 µM (inactive)	> 100 µM (inactive)	> 100 µM (inactive)	> 100 µM (inactive)	> 100 µM (inactive)	> 100 µM (inactive)	–	> 100 µM (inactive)	> 100 µM (inactive)	> 100 µM (inactive)	–	> 100 µM (inactive)	> 100 µM (inactive)	–
CC1(Br)C(=O)NC(=O)N([C@H]2C[C@H](O)[C@@H](CO)O2)C1N=[N+]=[N-] (some centres undefined)	> 100 µM (inactive)	> 100 µM (inactive)	> 100 µM (inactive)	> 100 µM (inactive)	> 100 µM (inactive)	> 100 µM (inactive)	> 100 µM (inactive)	> 100 µM (inactive)	> 100 µM (inactive)	> 100 µM (inactive)	> 100 µM (inactive)	> 100 µM (inactive)	> 100 µM (inactive)	> 100 µM (inactive)	> 100 µM (inactive)	> 91.2 µM (inactive)	> 100 µM (inactive)	> 100 µM (inactive)	> 100 µM (inactive)	–
Cc1ccc(N2C(=O)C(Cl)=C(Cl)C2=O)cc1	> 100 µM (inactive)	18.7 µM (inactive)	21.3 µM (inactive)	40.9 µM (inactive)	30.1 µM (inactive)	20.8 µM (inactive)	–	37.6 µM (inactive)	19.6 µM (inactive)	38.3 µM (inactive)	25.2 µM (inactive)	16.4 µM (inactive)	12.5 µM (inactive)	19.1 µM (inactive)	17.1 µM (inactive)	19 µM (inactive)	18.2 µM (inactive)	19.7 µM (inactive)	18.8 µM (inactive)	–
COc1cc(/C=C(\NC(=O)c2ccccc2)c2nc3ccc4c(c3[nH]2)C(=O)c2ccccc2C4=O)cc(OC)c1OC	–	32.5 µM (inactive)	–	35 µM (inactive)	> 100 µM (inactive)	10.7 µM (inactive)	41.6 µM (inactive)	21.4 µM (inactive)	–	31.9 µM (inactive)	20.1 µM (inactive)	2.52 µM (inactive)	22.8 µM (inactive)	> 100 µM (inactive)	10.1 µM (inactive)	32.4 µM (inactive)	25.4 µM (inactive)	38.3 µM (inactive)	2.92 µM (inactive)	–
NC1=NN(c2ccccc2)C(=O)C1C(=O)C(=O)NC1C2CC3CC(C2)CC1C3 (centres undefined)	> 100 µM (inactive)	> 100 µM (inactive)	> 100 µM (inactive)	> 100 µM (inactive)	> 100 µM (inactive)	> 100 µM (inactive)	> 100 µM (inactive)	> 100 µM (inactive)	> 100 µM (inactive)	> 100 µM (inactive)	> 100 µM (inactive)	> 100 µM (inactive)	> 100 µM (inactive)	> 100 µM (inactive)	–	> 100 µM (inactive)	> 100 µM (inactive)	> 100 µM (inactive)	–	–
